Assay results: paper PMC12152147, “DDB1 engagement defines the selectivity of S656 analogs for cyclin K degradation over CDK inhibition” (EMBO Reports, 2025)
Values joined by “and” are separate entries in the source; they are usually repeats but may differ in a detail not shown here. Identical values can stand only once. Like-named read-outs stand apart in the source and are kept apart here.

Columns and labels:
[1] = tested on: primary AML specimens; assay: Dose-response assays in primary AML specimens (6 days, CellTiterGlo); type: cell-based, human; conditions: Homo sapiens, 144 h
Procedure, shortened: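 Primary AML cells in IMDM/15% BIT with SCF, FLT3L, IL3, G-CSF, SR1 and UM729 were exposed to 8-point 1:4 dilutions (10 μM to 0.5 nM) for 6 days. Viability came from CellTiterGlo luminescence, with % inhibition versus DMSO (0.1%) fitted by nonlinear regression.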

[2] = tested on: OCI-AML5 cells; assay: Dose-response proliferative assay in OCI-AML5 (4 days, CellTiterGlo); type: cell-based, H. sapiens
Procedure, shortened: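 Viability assessed after 4 days of compound exposure at 37 °C, 5% CO2. Compounds tested as 8 dilutions (1:4, 10 μM to 0.5 nM) on 300 OCI-AML5 cells/well grown in αMEM with 10% heat-inactivated FBS and 10 ng/mL GM-CSF.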

[3] = tested on: cyclin KeGFP; assay: Cyclin KeGFP reporter system (eGFP/mCherry MFI by flow cytometry);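 on % degradation cyclin K-eGFP: 10 μM compound for 3 h relative to DMSO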; type: cell-based, H. sapiens
Procedure, shortened: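 Degradation read as eGFP-to-mCherry MFI ratio relative to DMSO controls, from flow cytometry of the selected G7 clone of OCI-AML5 cells transduced with the cyclin KeGFP reporter.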

[4] = target: T1, CDK12/Cyclin K (Homo sapiens, UniProt Q9NYV4); assay: CDK12/CyclinK in vitro kinase assay (BPS kit, Kinase Glo MAX); type: biochemical; conditions: for in vitro inhibition of CDK12/Cyclin K activity: in % (unit assumed)
T1 construct: purchased BPS Bioscience 78298
T1 sequence (Q9NYV4 whole entry): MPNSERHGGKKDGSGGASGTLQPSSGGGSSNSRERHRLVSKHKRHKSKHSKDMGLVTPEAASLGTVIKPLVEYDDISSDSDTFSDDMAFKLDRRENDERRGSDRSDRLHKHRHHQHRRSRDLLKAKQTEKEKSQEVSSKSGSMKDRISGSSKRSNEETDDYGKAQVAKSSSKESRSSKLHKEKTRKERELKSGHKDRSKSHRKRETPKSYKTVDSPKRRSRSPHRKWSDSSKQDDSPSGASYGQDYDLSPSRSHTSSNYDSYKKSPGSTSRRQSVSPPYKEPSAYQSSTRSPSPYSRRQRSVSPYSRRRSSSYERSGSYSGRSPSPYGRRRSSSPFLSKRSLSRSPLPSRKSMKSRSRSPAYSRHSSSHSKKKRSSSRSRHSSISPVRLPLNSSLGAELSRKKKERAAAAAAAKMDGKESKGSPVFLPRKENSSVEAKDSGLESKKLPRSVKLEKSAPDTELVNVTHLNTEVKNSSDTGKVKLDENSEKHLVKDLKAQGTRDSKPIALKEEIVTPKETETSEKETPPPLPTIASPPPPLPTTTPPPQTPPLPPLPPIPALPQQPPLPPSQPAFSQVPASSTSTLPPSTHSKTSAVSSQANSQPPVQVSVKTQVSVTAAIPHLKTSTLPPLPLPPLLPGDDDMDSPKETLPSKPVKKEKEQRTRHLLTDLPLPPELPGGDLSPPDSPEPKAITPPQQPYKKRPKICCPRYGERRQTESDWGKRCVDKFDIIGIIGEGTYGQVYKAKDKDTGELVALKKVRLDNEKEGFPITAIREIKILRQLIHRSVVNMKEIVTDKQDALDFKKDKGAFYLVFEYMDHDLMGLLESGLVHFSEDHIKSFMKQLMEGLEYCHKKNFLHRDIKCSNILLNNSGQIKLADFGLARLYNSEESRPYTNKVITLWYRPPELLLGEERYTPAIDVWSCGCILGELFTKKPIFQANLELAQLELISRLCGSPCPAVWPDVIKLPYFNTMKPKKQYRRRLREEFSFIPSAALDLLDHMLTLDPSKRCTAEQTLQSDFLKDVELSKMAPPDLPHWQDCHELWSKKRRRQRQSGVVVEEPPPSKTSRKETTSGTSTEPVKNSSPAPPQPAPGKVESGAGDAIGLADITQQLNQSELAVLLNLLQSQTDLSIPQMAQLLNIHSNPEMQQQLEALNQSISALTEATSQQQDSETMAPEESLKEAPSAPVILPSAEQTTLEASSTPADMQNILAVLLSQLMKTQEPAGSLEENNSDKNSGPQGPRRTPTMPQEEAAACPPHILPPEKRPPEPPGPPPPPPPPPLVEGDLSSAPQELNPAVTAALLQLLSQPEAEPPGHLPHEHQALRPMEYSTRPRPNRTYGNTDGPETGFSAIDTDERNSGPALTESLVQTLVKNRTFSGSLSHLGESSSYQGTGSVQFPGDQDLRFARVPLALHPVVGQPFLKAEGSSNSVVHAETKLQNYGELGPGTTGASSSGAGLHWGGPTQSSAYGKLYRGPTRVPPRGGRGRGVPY
T1 sequence (O75909 whole entry partner): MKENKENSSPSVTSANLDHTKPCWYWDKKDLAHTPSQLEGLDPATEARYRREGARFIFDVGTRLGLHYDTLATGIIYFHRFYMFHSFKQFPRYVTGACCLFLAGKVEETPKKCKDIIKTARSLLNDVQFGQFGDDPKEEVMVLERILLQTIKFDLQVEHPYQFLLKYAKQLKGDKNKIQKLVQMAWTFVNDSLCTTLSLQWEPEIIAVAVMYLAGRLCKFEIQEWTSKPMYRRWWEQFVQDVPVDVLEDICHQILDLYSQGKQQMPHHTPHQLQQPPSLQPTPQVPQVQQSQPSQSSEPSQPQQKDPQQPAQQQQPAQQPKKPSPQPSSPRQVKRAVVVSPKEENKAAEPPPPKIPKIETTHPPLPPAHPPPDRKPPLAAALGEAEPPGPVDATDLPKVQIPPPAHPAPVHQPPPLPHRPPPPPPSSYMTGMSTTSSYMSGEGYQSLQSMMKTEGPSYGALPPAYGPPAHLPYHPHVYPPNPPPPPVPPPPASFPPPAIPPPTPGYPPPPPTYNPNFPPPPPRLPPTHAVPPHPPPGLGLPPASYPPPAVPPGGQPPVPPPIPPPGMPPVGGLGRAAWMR
Method: (§1) Kinase activity was assessed using the kinase assay kits from BPS Bioscience for CDK1, CDK9 and CDK12 with Kinase Glo MAX in duplicates. Compounds were tested at a single concentration of 1 μM for CDK1 and CDK9 activity, and in a dilution ranging from 0.64 nM to 50 μM for CDK12 activity. Chemiluminescence was read using the Neo Synergy BioTek plate reader.

[5] = target: T2, CDK1 (Homo sapiens, UniProt P06493); assay: CDK1 in vitro kinase activity, single concentration 1 μM; type: biochemical
T2 construct: purchased BPS Bioscience 79597
T2 sequence (P06493 whole entry): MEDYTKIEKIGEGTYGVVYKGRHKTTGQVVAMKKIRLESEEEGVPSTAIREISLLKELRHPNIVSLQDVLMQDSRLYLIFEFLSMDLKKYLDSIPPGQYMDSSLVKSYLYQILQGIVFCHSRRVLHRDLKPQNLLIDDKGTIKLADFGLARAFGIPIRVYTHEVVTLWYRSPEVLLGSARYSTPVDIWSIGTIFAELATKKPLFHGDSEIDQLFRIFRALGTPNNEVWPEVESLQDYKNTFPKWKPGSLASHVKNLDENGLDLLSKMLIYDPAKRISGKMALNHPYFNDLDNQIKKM
T2 sequence (P14635 whole entry partner): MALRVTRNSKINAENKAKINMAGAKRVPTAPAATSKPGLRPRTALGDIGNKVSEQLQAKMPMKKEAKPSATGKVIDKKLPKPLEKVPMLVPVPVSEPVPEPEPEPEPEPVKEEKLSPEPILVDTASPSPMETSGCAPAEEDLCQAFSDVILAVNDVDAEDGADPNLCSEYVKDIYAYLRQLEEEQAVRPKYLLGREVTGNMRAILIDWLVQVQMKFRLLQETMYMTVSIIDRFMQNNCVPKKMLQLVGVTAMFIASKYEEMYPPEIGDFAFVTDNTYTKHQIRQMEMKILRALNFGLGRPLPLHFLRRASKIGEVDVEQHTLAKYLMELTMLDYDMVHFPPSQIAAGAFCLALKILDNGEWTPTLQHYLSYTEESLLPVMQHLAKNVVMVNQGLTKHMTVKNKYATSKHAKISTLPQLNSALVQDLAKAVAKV
Method: as §1

[6] = target: T3, CDK9/CyclinT (Homo sapiens, UniProt P50750); assay: CDK9/CyclinT in vitro kinase activity, single concentration 1 μM; type: biochemical
T3 construct: purchased BPS Bioscience 79628
T3 sequence (P50750 whole entry): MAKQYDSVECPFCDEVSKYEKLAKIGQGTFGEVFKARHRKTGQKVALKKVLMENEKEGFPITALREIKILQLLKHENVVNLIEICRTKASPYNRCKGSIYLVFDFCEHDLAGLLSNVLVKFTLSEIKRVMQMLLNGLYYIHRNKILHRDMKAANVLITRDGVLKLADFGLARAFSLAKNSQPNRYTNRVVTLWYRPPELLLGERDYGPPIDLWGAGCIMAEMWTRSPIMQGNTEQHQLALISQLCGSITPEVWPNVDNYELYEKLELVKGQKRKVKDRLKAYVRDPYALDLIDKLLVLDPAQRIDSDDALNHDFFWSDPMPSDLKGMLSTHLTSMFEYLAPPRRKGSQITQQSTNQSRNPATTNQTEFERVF
T3 sequence (O60563 whole entry partner): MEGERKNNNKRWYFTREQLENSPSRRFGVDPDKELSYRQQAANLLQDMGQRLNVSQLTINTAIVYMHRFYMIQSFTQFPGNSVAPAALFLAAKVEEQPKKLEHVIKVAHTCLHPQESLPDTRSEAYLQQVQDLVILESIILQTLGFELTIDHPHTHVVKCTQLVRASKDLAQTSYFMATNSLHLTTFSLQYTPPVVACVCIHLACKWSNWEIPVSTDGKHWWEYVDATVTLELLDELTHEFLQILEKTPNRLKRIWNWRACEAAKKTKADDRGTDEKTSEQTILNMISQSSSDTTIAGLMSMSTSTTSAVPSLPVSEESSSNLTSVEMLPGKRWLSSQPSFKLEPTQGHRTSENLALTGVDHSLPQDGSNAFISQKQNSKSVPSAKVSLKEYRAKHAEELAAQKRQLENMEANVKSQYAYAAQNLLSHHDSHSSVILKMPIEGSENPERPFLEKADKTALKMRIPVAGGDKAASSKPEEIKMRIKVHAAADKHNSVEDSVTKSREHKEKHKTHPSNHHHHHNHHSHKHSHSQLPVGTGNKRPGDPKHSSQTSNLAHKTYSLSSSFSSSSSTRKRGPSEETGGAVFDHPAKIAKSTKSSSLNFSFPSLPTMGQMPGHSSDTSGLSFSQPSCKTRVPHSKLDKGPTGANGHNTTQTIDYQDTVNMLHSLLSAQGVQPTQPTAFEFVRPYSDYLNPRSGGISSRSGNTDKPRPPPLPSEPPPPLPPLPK
Method: as §1

[7] = tested on: OCI-AML5 cells expressing shRNAs targeting CDK1, 2, 4, 7, 9, cyclin K; assay: Dose response in OCI-AML5 expressing shRNAs targeting CDK1, 2, 4, 7, 9, cyclin K or control; type: cell-based, H. sapiens
[8] = tested on: OCI-AML5 cells expressing shRNA targeting CUL4A or CUL4B; assay: Dose response in OCI-AML5 expressing shRNAs targeting CUL4A, CUL4B or control; type: cell-based, H. sapiens

With CN(C)c1ccc(CC(=O)Nc2ncc(SCc3cccnc3)s2)cc1 [S656] the IC50 ([1]; primary AML specimen 03H109, 6 days, read-out: IC50) was 761 nM, the IC50 ([1]; primary AML specimen 04H055, 6 days, read-out: IC50) was 1040 nM and the IC50 ([1]; primary AML specimen 04H096, 6 days, read-out: IC50) was 846 nM. For the same molecule, the IC50 ([1]; primary AML specimen 04H138, 6 days, read-out: IC50) was 1990 nM, the IC50 ([1]; primary AML specimen 05H113, 6 days, read-out: IC50) was 897 nM and the IC50 ([1]; primary AML specimen 05H149, 6 days, read-out: IC50) was 1380 nM. For the same molecule, the IC50 ([1]; primary AML specimen 05H193, 6 days, read-out: IC50) was 999 nM, the IC50 ([1]; primary AML specimen 06H088, 6 days, read-out: IC50) was 1260 nM and the IC50 ([1]; primary AML specimen 06H117, 6 days, read-out: IC50) was 983 nM. It also gave an IC50 ([1]; primary AML specimen 06H151, 6 days, read-out: IC50) of 683 nM, an IC50 ([1]; primary AML specimen 07H003, 6 days, read-out: IC50) of 2190 nM and an IC50 ([1]; primary AML specimen 07H131, 6 days, read-out: IC50) of 2680 nM. For the same molecule, the IC50 ([1]; primary AML specimen 07H144, 6 days, read-out: IC50) was 999 nM, the IC50 ([1]; primary AML specimen 07H155, 6 days, read-out: IC50) was 2440 nM and the IC50 ([1]; primary AML specimen 08H018, 6 days, read-out: IC50) was 2210 nM. It also gave an IC50 ([1]; primary AML specimen 08H021, 6 days, read-out: IC50) of 1010 nM, an IC50 ([1]; primary AML specimen 08H056, 6 days, read-out: IC50) of 2130 nM and an IC50 ([1]; primary AML specimen 08H063, 6 days, read-out: IC50) of 2380 nM. The IC50 ([1]; primary AML specimen 08H085, 6 days, read-out: IC50) was 1010 nM, the IC50 ([1]; primary AML specimen 08H108, 6 days, read-out: IC50) was 826 nM and the IC50 ([1]; primary AML specimen 08H118, 6 days, read-out: IC50) was 887 nM. It also gave an IC50 ([1]; primary AML specimen 09H016, 6 days, read-out: IC50) of 974 nM, an IC50 ([1]; primary AML specimen 09H070, 6 days, read-out: IC50) of 2240 nM and an IC50 ([1]; primary AML specimen 10H014, 6 days, read-out: IC50) of 852 nM. For the same molecule, the IC50 ([1]; primary AML specimen 10H046, 6 days, read-out: IC50) was 972 nM, the IC50 ([1]; primary AML specimen 10H107, 6 days, read-out: IC50) was 1560 nM and the IC50 ([1]; primary AML specimen 10H127, 6 days, read-out: IC50) was 1440 nM. For the same molecule, the IC50 ([1]; primary AML specimen 10H161, 6 days, read-out: IC50) was 1170 nM, the IC50 ([1]; primary AML specimen 10H174, 6 days, read-out: IC50) was 887 nM and the IC50 ([1]; primary AML specimen 11H008, 6 days, read-out: IC50) was 1450 nM. For the same molecule, the IC50 ([1]; primary AML specimen 11H019, 6 days, read-out: IC50) was 1090 nM, the IC50 ([1]; primary AML specimen 11H170, 6 days, read-out: IC50) was 2330 nM and the IC50 ([1]; primary AML specimen 11H217, 6 days, read-out: IC50) was 1240 nM. For the same molecule, the IC50 ([1]; primary AML specimen 11H232, 6 days, read-out: IC50) was 1130 nM, the IC50 ([1]; primary AML specimen 12H033, 6 days, read-out: IC50) was 2380 nM and the IC50 ([1]; primary AML specimen 12H055, 6 days, read-out: IC50) was 1390 nM. It also gave an IC50 ([1]; primary AML specimen 12H148, 6 days, read-out: IC50) of 1480 nM, an IC50 ([1]; primary AML specimen 13H053, 6 days, read-out: IC50) of 2190 nM and an IC50 ([1]; primary AML specimen 15H045, 6 days, read-out: IC50) of 680 nM. For the same molecule, the IC50 ([1]; primary AML specimen 17H065, 6 days, read-out: IC50) was 1550 nM, the IC50 ([1]; read-out: median IC50 in a panel of 40 primary AMLs, 6 days) was 1210 nM and the IC50 ([2]; Homo sapiens, OCI-AML-5, 96 h, 4 days incubation, read-out: IC50 OCI-AML5) was 743 nM. The IC50 ([2]; Homo sapiens, OCI-AML-5, 96 h, OCI-AML5, regular media, 4 days, read-out: S656 IC50, Media) was 949 nM, the IC50 ([2]; OCI-AML5, regular media, 4 days, read-out: S656 IC50, Media) was 675 nM and 712 nM and the “% cyclin KeGFP degradation” value ([3]; 3 h, 10 μM, compared to DMSO, OCI-AML5 G7 clone) was 75%. For the same molecule, the “MFI of cyclin KeGFP over mCherry” value ([3]; OCI-AML5 G7 clone, 3 h, 10 μM, normalized to DMSO (=100)) was 23.8 and 23.9 and 23.3 and 23.2 and 22.8, the “% degradation cyclin K-eGFP” value ([3]; cyclin K-eGFP reporter) was 75% and the “in vitro inhibition of CDK12/Cyclin K activity” value ([4]; Log10 (uM) 0.30103) was 29.97 and 30.05 and 16.95. The “in vitro inhibition of CDK12/Cyclin K activity” value ([4]; Log10 (uM) 1) was 64.47 and 62.45 and 59.28, the “in vitro inhibition of CDK12/Cyclin K activity” value ([4]; Log10 (uM) 1.69897) was 82.67 and 75.84 and 109.95 and the IC50 ([4]; read-out: IC50, in vitro inhibition of CDK12/Cyclin K activity) was 6000 nM. For the same molecule, the “in vitro inhibitory activity for CDK1” value ([5]; 1 μM) was “displays in vitro inhibitory activity”, the inhibition at 1 µM ([5]; single concentration 1 μM) was 70% and the “in vitro inhibitory activity for CDK9” value ([6]; 1 μM) was “displays in vitro inhibitory activity”. The inhibition at 1 µM ([6]; single concentration 1 μM) was 59%, the IC50 ([7]; Homo sapiens, OCI-AML-5, 96 h, OCI-AML5, 4 days, read-out: IC50, sh CDK1) was 499 nM and the IC50 ([7]; Homo sapiens, OCI-AML-5, 96 h, OCI-AML5, 4 days, read-out: IC50, sh CDK2) was 842 nM. The IC50 ([7]; Homo sapiens, OCI-AML-5, 96 h, OCI-AML5, 4 days, read-out: IC50, sh CDK4) was 577 nM, the IC50 ([7]; Homo sapiens, OCI-AML-5, 96 h, OCI-AML5, 4 days, read-out: IC50, sh CDK7) was 791 nM and the IC50 ([7]; Homo sapiens, OCI-AML-5, 96 h, OCI-AML5, 4 days, read-out: IC50, sh CDK9) was 548 nM. The IC50 ([7]; Homo sapiens, OCI-AML-5, 96 h, OCI-AML5, 4 days, read-out: IC50, sh Cyclin K) was 175 nM, the IC50 ([7]; Homo sapiens, OCI-AML-5, 96 h, OCI-AML5, 4 days, read-out: IC50, sh ctrl) was 756 nM and the IC50 ([7]; Homo sapiens, OCI-AML-5, OCI-AML5 expressing shRNA CCNK (cyclin K), read-out: IC50 shRNA CCNK) was 194 nM. The IC50 ([7]; Homo sapiens, OCI-AML-5, OCI-AML5 expressing shRNA CDK1, read-out: IC50 shRNA CDK1) was 478 nM, the IC50 ([7]; Homo sapiens, OCI-AML-5, OCI-AML5 expressing shRNA CDK2, read-out: IC50 shRNA CDK2) was 794 nM and the IC50 ([7]; Homo sapiens, OCI-AML-5, OCI-AML5 expressing shRNA CDK4, read-out: IC50 shRNA CDK4) was 690 nM. The IC50 ([7]; Homo sapiens, OCI-AML-5, OCI-AML5 expressing shRNA CDK9, read-out: IC50 shRNA CDK9) was 548 nM, the IC50 ([7]; OCI-AML5, 4 days, read-out: IC50, sh CDK1) was 480 nM and the IC50 ([7]; OCI-AML5, 4 days, read-out: IC50, sh CDK2) was 928 nM and 685 nM. The IC50 ([7]; OCI-AML5, 4 days, read-out: IC50, sh CDK4) was 744 nM and 662 nM, the IC50 ([7]; OCI-AML5, 4 days, read-out: IC50, sh CDK7) was 774 nM and 662 nM and the IC50 ([7]; OCI-AML5, 4 days, read-out: IC50, sh CDK9) was 589 nM and 628 nM. The IC50 ([7]; OCI-AML5, 4 days, read-out: IC50, sh Cyclin K) was 288 nM and 186 nM, the IC50 ([7]; OCI-AML5, 4 days, read-out: IC50, sh ctrl) was 713 nM and 664 nM and the Class ([7]; class from shRNA IC50 profile and cyclin K-eGFP degradation) was “mixed 1-2”. For the same molecule, the “potency upon CUL4A or CUL4B downregulation (for SNS-032, THZ531 also DDB1 depletion)” value ([8]; OCI-AML5, 4 days) was “impaired” and the “Ratio shCUL4A/shCTRL” value ([8]; ratio of IC50 in shCUL4A vs shCTRL OCI-AML5 cells) was 2.79.
